Patent US9839642B2, “Beta-tetrazolyl-propionic acids as metallo-beta-lactamase inhibitors” (priority 2014, dated 2017)

What was measured:
[1] = tested on: Klebsiella pneumoniae expressing VIM-1 (IHMA599644); assay: Antibiotic potentiation activity: synergistic concentration (MITC95) with imipenem, growth by OD600; format: cell-based; conditions: 95% inhibition of bacterial growth, strain IHMA599644
Outline: (§1)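 Strains grown overnight at 35° C, resuspended in saline, diluted 1:100 into 1.1×CAMHB; imipenem at 1 μg/ml or 4 μg/ml with test compound 200 μM to 0.195 μM. Incubated 22 hours to 24 hours at 35° C, OD600 read; MITC95 is lowest compound concentration inhibiting 95% of growth.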

[2] = tested on: Serratia marcescens expressing IMP-1 (CL5741); assay: as above; format: cell-based; conditions: 95% inhibition of bacterial growth, strain CL5741
Outline: as §1

[3] = tested on: Escherichia coli expressing NDM-1 (CLB30005); assay: as above; format: cell-based; conditions: 95% inhibition of bacterial growth, strain CLB30005
Outline: as §1

[4] = target: IMP-1 (Serratia marcescens, UniProt P52699); assay: Enzyme activity: determination of IC50, fluorescence assay with CCF2-FA substrate; format: biochemical; conditions: enzyme 2 pM, CCF2-FA 1.25 μM, 2 hours at 25° C.; read-out: IMP1 IC50
IMP-1, sequence (P52699 19-246, looked up, species assumed): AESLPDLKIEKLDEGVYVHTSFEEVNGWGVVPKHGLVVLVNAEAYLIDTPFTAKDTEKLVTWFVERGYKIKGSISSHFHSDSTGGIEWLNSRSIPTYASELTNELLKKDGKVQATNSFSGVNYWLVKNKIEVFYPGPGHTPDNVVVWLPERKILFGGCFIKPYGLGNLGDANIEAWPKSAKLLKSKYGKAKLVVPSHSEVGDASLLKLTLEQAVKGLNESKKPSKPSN
Outline: (§2)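 Enzyme (1 pM NDM-1, 2 pM IMP-1, 30 pM VIM-1) incubated with inhibitor (20 to 0.00063 μM) and 1.25 μM CCF2-FA in 100 mM KH2PO4 pH 7, 0.005% Tween-20, 10 μM ZnSO4, 2 h at 25 °C. Fluorescence read at 460 nm (ex 405 nm); IC50 by 4-parameter fit.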

[5] = target: NDM-1 (Klebsiella pneumoniae, UniProt C7C422); assay: as above; format: biochemical; conditions: enzyme 1 pM, CCF2-FA 1.25 μM, 2 hours at 25° C.; read-out: NDM1 IC50
NDM-1, sequence (C7C422 29-270, looked up, species assumed): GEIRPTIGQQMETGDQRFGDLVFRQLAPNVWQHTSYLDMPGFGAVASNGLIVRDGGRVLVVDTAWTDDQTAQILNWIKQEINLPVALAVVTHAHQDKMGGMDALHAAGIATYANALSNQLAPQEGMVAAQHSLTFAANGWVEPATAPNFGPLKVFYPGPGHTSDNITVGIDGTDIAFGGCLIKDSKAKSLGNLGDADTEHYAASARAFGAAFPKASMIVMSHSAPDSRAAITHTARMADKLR
Outline: as §2

[6] = target: VIM-1 (Pseudomonas aeruginosa, UniProt A0A0F7KYQ8); assay: as above; format: biochemical; conditions: enzyme 30 pM, CCF2-FA 1.25 μM, 2 hours at 25° C.; read-out: VIM1 IC50
Outline: as §2

| SMILES | VIM1 KP599644 MITC95 [1] [µM] | IMP1 SM5741 MITC95 [2] [µM] | NDM1 EC30005 MITC95 [3] [µM] | IC50 [4] [µM] | IC50 [5] [µM] | IC50 [6] [µM] |
| --- | --- | --- | --- | --- | --- | --- |
| CC(C)=CCCC(C(=O)O)[C@H](Cc1ccccc1)c1nnn[nH]1 (stereo in doubt) [Example 15, (2R)-6-methyl-2-[(1S)-2-phenyl-1-(1H-tetrazol-5-yl)ethyl]hept-5-enoic acid] | 200 | >200 | 15.6 | 4.8 | 0.38 | 0.12 |
| CCCCC(C(=O)O)[C@@H](Cc1ccc(-c2ccc(S(C)(=O)=O)cc2)cc1)c1nn[nH]n1 (stereo in doubt) [Example 183, (2R)-2-[(1R)-2-[4′-(methylsulfonyl)biphenyl-4-yl]-1-(2H-tetrazol-5-yl)ethyl]hexanoic acid] | >200 | >200 | >200 | 0.2 | 0.66 | 0.7 |
| CC(C)CCC[C@H](C(=O)O)[C@H](Cc1ccccc1)c1nnn[nH]1 [Example 1, (S)-6-Methyl-2-((S)-2-phenyl-1-(1H-tetrazol-5-yl)ethyl)heptanoic acid] | >200 | 138 | 75 | 0.28 | 0.87 | > 20 |
| CC(C)CCC[C@@H](C(=O)O)[C@H](Cc1ccccc1)c1nnn[nH]1 [Example 2, (R)-6-methyl-2-((S)-2-phenyl-1-(1H-tetrazol-5-yl)ethyl)heptanoic acid] | >200 | 100 | >200 | 0.068 | 5.4 | 8.2 |
| O=C(O)[C@@H](Cc1ccccc1)[C@H](Cc1ccccc1)c1nnn[nH]1 [Example 3, (2S,3S)-2-benzyl-4-phenyl-3-(1H-tetrazol-5-yl)butanoic acid] | >200 | 112.5 | 200 | 0.55 | 0.35 | 0.64 |
| CCC[C@H](C(=O)O)[C@H](Cc1ccccc1)c1nnn[nH]1 [Example 4, (S)-2-((S)-2-phenyl-1-(1H-tetrazol-5-yl)ethyl)pentanoic acid] | 50 | >200 | 9.4 | 0.38 | 0.049 | 0.014 |
| CCC[C@@H](C(=O)O)[C@H](Cc1ccccc1)c1nnn[nH]1 [Example 5, (R)-2-((S)-2-phenyl-1-(1H-tetrazol-5-yl)ethyl)pentanoic acid] | 200 | >200 | 62.5 | 1.5 | 0.23 | 0.061 |
| O=C(O)[C@@H](CCCC(F)(F)F)[C@H](Cc1ccccc1)c1nnn[nH]1 [Example 6, (S)-6,6,6-trifluoro-2-((S)-2-phenyl-1-(1H-tetrazol-5-yl)ethyl)hexanoic acid] | >200 | 106.3 | 75 | 0.73 | 0.24 | 0.13 |
| CC(C)C[C@H](C(=O)O)[C@H](Cc1ccccc1)c1nnn[nH]1 [Example 7, (2S)-4-methyl-2-[(2S)-2-phenyl-1-(1H-tetrazol-5-yl)ethyl]pentanoic acid] | 37.5 | 62.5 | 18.8 | 0.052 | 0.019 | 0.0033 |
| CC[C@H](C(=O)O)[C@H](Cc1ccccc1)c1nnn[nH]1 [Example 8, (2S,3S)-2-ethyl-4-phenyl-3-(1H-tetrazol-5-yl)butanoic acid] | 62.5 | 125 | 9.4 | 1.8 | 0.081 | 0.021 |
